Experimental findings from US20040266862A1, “Method of improving animal tissue quality by supplementing the animal diet with mixed tocotrienols” (priority 2003, published 2004) are described below.

Marks after values point to notes of the source that are not given here.

Type in all cases: in vivo
In assay [1] the test system is chickens. The experiment in a line: 2002 poultry feed test: TBARS content of raw ground chicken thighs. Conditions: 300 ppm in diet. From the text: (§1) Applicants also assessed the effects of antioxidant supplementation on meat quality in an experiment in which meat from chickens fed one of four dietary treatments was compared. On Jul. 25, 2002, day-old chicks were obtained from a commercial company. The birds were housed in a brooder until Aug. 11, 2002. On Aug. 11, forty-eight birds were randomly allocated to one of four pens (twelve birds per pen). Birds in each pen were offered ad libitum access to one of four treatment diets: control, 300 ppm AT, 300 ppm GT or 150 ppm MT. The MT premix contained a commercially available MT supplement (7.5% alpha-, 12.3% gamma- and 3.0% delta-tocotrienol and 7.2% alpha-tocopherol) mixed with ground corn as the carrier. The total MT premix (ground corn plus MT supplement) represented 2.5% w/w of the finished MT supplemented feed.
(§2) On Sep. 13, 2002 (seven weeks of age) the birds were harvested, identified and frozen at −20C. The birds were stored frozen at −20C for 136-159 days post slaughter. On days 136, 156, 157, 158 and 159 (where available) two birds per dietary treatment were thawed in cold water. Meat was removed from the breasts (pectoralis major muscles) and thighs. Breast meat from each chicken was ground through a 3 mm disc in a Krups Butcher Shop 150W Professional Power Meat Grinder. Thigh meat from two chickens was combined (for days 156, 157, 158 and 159; day 136 thigh meat was kept separate for each bird) and ground in a similar manner. Patties were made (10 g for breast; 60 g for thighs) using a 100×15 mm Petri dish as a mold.
(§3) Patties were quartered and each quarter was stored at 2.2C for a designated period of time. One quarter was used per sampling period. Sampling periods for the raw ground meat were day 0, day 3, day 7 and day 10. Thiobarbituric acid reacting substances (TBARS) analyses was performed on the raw ground chicken breasts and thighs according to the procedure of Ahn, D. U., D. G. Olson, C. Jo, X. Chen, C. Wu, and J. I. Lee, “Effect of Muscle Type, Packaging, and Irradiation on Lipid Oxidation, Volatile Production and Color in Raw Pork Patties”, Meat Sci. 49:27-39 (1998).

Assay [2] concerns swine. The assay is described as follows: 2002 swine feed test: 24 hour raw pork loin quality. Details: Marbling / Fat Firmness / Color Score: scale not given here. From the text: Applicants conducted a second swine feeding trial to further determine the effects on meat quality of supplementation of a swine diet with alpha-tocopherol (AT), gamma-tocopherol (GT) or mixed tocotrienols (MT). Seventy-two barrows (˜75 lbs.) were transported to the Pioneer Livestock Nutrition Center (PLNC) and randomly placed into individual pens with water and feed provided ad libitum. The pigs received a common diet for seven days. On the eighth day the pigs were weighed individually and a uniform group of sixty pigs with an average body weight of about 75 pounds was selected. The pigs were randomly assigned one of five dietary treatments with 12 pigs per treatment. The feeding trial was initiated on Mar. 12, 2002 and ended on Jun. 19, 2002.
The pigs were fed a corn-soybean meal diet formulated to provide adequate levels of all nutrients. In addition, one of five dietary treatments was assigned to each group: control, 300 ppm AT, 450 ppm GT, 150 ppm MT, and 300 ppm MT. To each diet a corn oil premix and a ground corn premix were added with the corn oil premix as a carrier for the supplemental tocopherols and the ground corn premix as the carrier for the MT. The MT supplement was obtained commercially from Fuji Chemical Industries (U.S.A.) Inc. of Robbinsville, N.J., and contained 7.5% alpha-, 12.3% gamma- and 3.0% delta-tocotrienol, as well as 7.2% alpha-tocopherol.
The pigs were harvested in June 2002 when they had reached an average weight of about 245 pounds. Following a twelve-hour feed withdrawal, the pigs were transported to a commercial processing facility. At the commercial processing facility, individual hot carcass weight, back fat depth and loin depth were measured and recorded on the day of slaughter. Loin pH, loin color value (Minolta L*), Marbling and fat firmness were recorded 24 hours post mortem.

Assay [3] relates to chickens. The assay is described as follows: 2002 poultry feed test: TBARS content of raw ground chicken breasts. To be noted: 300 ppm in diet.
Source text: as §1, §2, §3

For assay [4], the system named is swine. The assay is described as follows: 2002 swine feed test: fat and TBARS content of raw ground pork. The text has this: Applicants conducted a second swine feeding trial to further determine the effects on meat quality of supplementation of a swine diet with alpha-tocopherol (AT), gamma-tocopherol (GT) or mixed tocotrienols (MT). Seventy-two barrows (˜75 lbs.) were transported to the Pioneer Livestock Nutrition Center (PLNC) and randomly placed into individual pens with water and feed provided ad libitum. The pigs received a common diet for seven days. On the eighth day the pigs were weighed individually and a uniform group of sixty pigs with an average body weight of about 75 pounds was selected. The pigs were randomly assigned one of five dietary treatments with 12 pigs per treatment. The feeding trial was initiated on Mar. 12, 2002 and ended on Jun. 19, 2002. The pigs were fed a corn-soybean meal diet formulated to provide adequate levels of all nutrients. In addition, one of five dietary treatments was assigned to each group: control, 300 ppm AT, 450 ppm GT, 150 ppm MT, and 300 ppm MT. To each diet a corn oil premix and a ground corn premix were added with the corn oil premix as a carrier for the supplemental tocopherols and the ground corn premix as the carrier for the MT. The MT supplement was obtained commercially from Fuji Chemical Industries (U.S.A.) Inc. of Robbinsville, N.J., and contained 7.5% alpha-, 12.3% gamma- and 3.0% delta-tocotrienol, as well as 7.2% alpha-tocopherol. Trimmed bellies were collected to measure the effects of dietary treatments on ground pork oxidation rate. The bellies were ground through a meat grinder and mixed. Four one-pound samples of each ground belly were placed on a retail meat tray and covered with oxygen permeable film. On each of days 1, 7, 10 and 16 post-grinding, one of the trays was opened and a sample submitted for TBARS (thiobarbituric acid reactive substances) determination, a measure of the extent of oxidation.

Regarding `Cc1c(O)cc2c(c1C)O[C@](C)(CCC[C@H](C)CCC[C@H](C)CCCC(C)C)CC2` [GT, gamma-tocopherol], the TBARS content is recorded as 0.2493 mg Malonaldehyde/kg sample in the assay with chickens [1] (Day 0 at 2.2C); 0.2010 mg Malonaldehyde/kg sample in the assay with chickens [1] (Day 3 at 2.2C); 0.1626 mg Malonaldehyde/kg sample in the assay with chickens [1] (Day 7 at 2.2C); 0.3557 mg Malonaldehyde/kg sample in the assay with chickens [1] (Day 10 at 2.2C); 0.3022 mg Malonaldehyde/kg sample in the assay on chickens [3] (Day 0 at 2.2C); 0.1926 mg Malonaldehyde/kg sample with chickens [3] (Day 3 at 2.2C). Further, the TBARS content in the assay on chickens [3] (Day 7 at 2.2C) is 0.0860 mg Malonaldehyde/kg sample; with chickens [3] (Day 10 at 2.2C), 0.1428^b mg Malonaldehyde/kg sample; in the assay with swine [4] (Day 1 post-grinding, 450 ppm in diet), 0.19 mg Malonaldehyde/kg sample; in the assay with swine [4] (Day 7 post-grinding, 450 ppm in diet) it was 0.17 mg Malonaldehyde/kg sample; in the assay on swine [4] (Day 10 post-grinding, 450 ppm in diet), 0.32 mg Malonaldehyde/kg sample; in the assay on swine [4] (Day 16 post-grinding, 450 ppm in diet), 1.01^b mg Malonaldehyde/kg sample. Moreover, the “Color Score” value in the assay with swine [2] (450 ppm in diet) is 3.1. Moreover, the “Fat Firmness” value in the assay on swine [2] (450 ppm in diet) worked out at 2.0. The “Hunter L*” value in the assay with swine [2] (450 ppm in diet) is recorded as 48.81. In the assay with swine [2] (450 ppm in diet), this molecule registered a Marbling of 1.9.

Consider `Cc1c(C)c2c(c(C)c1O)CC[C@@](C)(CCC[C@H](C)CCC[C@H](C)CCCC(C)C)O2` [AT, alpha-tocopherol], for which the TBARS content with chickens [1] (Day 0 at 2.2C) is 0.3438 mg Malonaldehyde/kg sample; in the assay with chickens [1] (Day 3 at 2.2C) it was 0.1810 mg Malonaldehyde/kg sample; in the assay with chickens [1] (Day 7 at 2.2C), 0.2448 mg Malonaldehyde/kg sample; with chickens [1] (Day 10 at 2.2C), 0.4482 mg Malonaldehyde/kg sample; with chickens [3] (Day 0 at 2.2C), 0.4569 mg Malonaldehyde/kg sample; in the assay on chickens [3] (Day 3 at 2.2C) it was 0.1214 mg Malonaldehyde/kg sample. For the same molecule, the TBARS content is recorded as 0.1243 mg Malonaldehyde/kg sample with chickens [3] (Day 7 at 2.2C); 0.1151^b mg Malonaldehyde/kg sample with chickens [3] (Day 10 at 2.2C); 0.13 mg Malonaldehyde/kg sample in the assay with swine [4] (Day 1 post-grinding, 300 ppm in diet); 0.18 mg Malonaldehyde/kg sample with swine [4] (Day 7 post-grinding, 300 ppm in diet); 0.34 mg Malonaldehyde/kg sample in the assay on swine [4] (Day 10 post-grinding, 300 ppm in diet); 1.46^ab mg Malonaldehyde/kg sample in the assay with swine [4] (Day 16 post-grinding, 300 ppm in diet). For the same molecule, in the assay on swine [2] (300 ppm in diet), the “Color Score” value amounted to 3.2. Further, the “Fat Firmness” value with swine [2] (300 ppm in diet) was 2.3. In addition, the “Hunter L*” value in the assay with swine [2] (300 ppm in diet) worked out at 48.89. Besides, the Marbling with swine [2] (300 ppm in diet) stood at 2.1.
